Data taken from ChEMBL document CHEMBL5385929, “Tabersonine Enhances Olaparib Sensitivity through FHL1-Mediated Epithelial-Mesenchymal Transition in an Ovarian Tumor” (J Nat Prod, 2024).
Active and inactive are the calls of the source. The rule behind the calls is not given here.

What was measured:
Assay type in all cases: functional, cell-based
SK-OV-3 [1] = experiment: Potentiation of olaparib sensitivity in human SK-OV-3 cells assessed as inhibition of colony formation at 10 uM incubated for 48 hrs in presence of olaparib followed by drug wash-out and incubated in fresh medium for 2 weeks by crystal violet staining based analysis
SK-OV-3 [2] = experiment: Potentiation of olaparib sensitivity in human SK-OV-3 cells transfected with shFLH1-1 RNA assessed as downregulation of EMT signaling by measuring E-cadherin protein expression at 10 uM in presence of olaparib by western blot analysis
SK-OV-3 [3] = experiment: Downregulation of EMT signalling in human SK-OV-3 cells transfected with shFHL1-1 RNA assessed as E-cadherin protein expression at 10 uM by western blot analysis

With `CC[C@]12C=CCN3CC[C@]4(C(=C(C(=O)OC)C1)Nc1ccccc14)[C@@H]32` [TABERSONINE] the Activity (SK-OV-3 [1]) was “Active”, the Activity (SK-OV-3 [2]) was “inactive” and the inhibition (SK-OV-3 [3]) was “inactive”.
